Experiments:
[1] = system: Staphylococcus aureus Newbould 305 (ATCC 29740); test: S. aureus mouse mastitis model (MMM), intramammary treatment; format: in vivo, lactating CD-1 mice; conditions: for Median CFU log10: glands harvested 18 h after inoculation
Method: The mice were treated intramammarily (IMAM) with enrofloxacin, fosfomycin and a combination of enrofloxacin and fosfomycin as detailed in Table 1 four hours after inoculation. Each treatment group contained at least 3 mice (6 glands). Fourteen hours later (18 hours after inoculation) mice were sacrificed, mammary glands were harvested and the CFU content evaluated by plating 10-fold serial dilutions of mammary gland homogenates. The CFU content was expressed as log10 count. The detection limit was 200 CFU/g of gland. Glands with less than 200 CFU/g were regarded as cleared of S. aureus (see Table 1).
For each treatment group median log10 reductions of CFU were determined by subtracting the median log10 CFU value of the respective group from the median log10 CFU value of the untreated control group.

S. aureus = format: cell-based, Staphylococcus aureus; conditions: single compound
Description: (§1) The mutant prevention concentration (MPC) is the drug concentration that blocks the growth of the least susceptible, single-step mutant. Above this concentration, cell growth requires the presence of two or more resistance mutations. Since two concurrent mutations are expected to arise rarely, resistance is expected to develop rarely when drug concentrations are kept above the MPC. For further information regarding the MPC, it is by way of example referred to Drlica, K. (2003). The mutant selection window and antimicrobial resistance. Journal of Antimicrobial Chemotherapy, 52(1), 11-17; and to Blondeau, J. M. (2009). New concepts in antimicrobial susceptibility testing: the mutant prevention concentration and mutant selection window approach. Veterinary dermatology, 20(5-6), 383-396.

E. coli = format: cell-based, Escherichia coli; conditions: single compound
Description: as §1

[2] = system: Streptococus uberis, Staphylococus aureus, Escherichia coli, other streptococci and mixed infections; test: Field study, dairy cattle with clinical mastitis; format: in vivo; conditions: 400 mg cefazolin and/or 1000 mg fosfomycin per quarter, paraffin based ointment, three times at 24 h interval; milk samples 1-3 weeks after treatment
Method: In a first field-study, dairy cattle with clinical mastitis were treated under field conditions with either cefazolin, fosfomycin or a combination of both compounds. […] The diseased quarters were treated with this ointment three consecutive times with an interval of 24 hours between each application. When a milk sample was taken from the diseased udder quarters before the treatment for the diagnosis of mastitis infection, pathogenic bacteria typical of clinical mastitis were isolated, i.e. Streptococus uberis, Staphylococus aureus, Escherichia coli, other streptococci and mixed infections of the aforementioned species. […] Diseased udder quarters were considered cured when the clinical symptoms of mastitis had disappeared within one week without requiring a new antibiotic treatment and when the causative pathogenic bacterium, found in the diagnostic milk sample shortly before treatment, could not be isolated from any of the milk samples taken from one to three weeks following treatment. The cure rate of mastitis infection was higher in the udder quarters treated with the combination ointment (cefazolin together with fosfomycin), i.e. 17/38 (45%), than in the quarters treated with the ointment containing cefazolin alone ( 11/35, 31%) or fosfomycin alone ( 13/37, 35%).

Staphylococcus aureus = test: Field trial, dairy cattle with subclinical mastitis; format: in vivo; conditions: 400 mg cefazolin and/or 1000 mg fosfomycin per quarter, six times at 12 h interval; for Cure rate of S. aureus infection / Cure rate of S. aureus infection (cured quarters/treated quarters): paraffin based ointment, milk samples 3 and 4 weeks after treatment
Method: In another field trial, dairy cattle with subclinical mastitis, i.e. persistent, chronic udder infections caused by Staphylococcus aureus, were treated with either cefazolin, fosfomycin or a combination of both compounds. […] The affected quarters were treated with this ointment six consecutive times with an interval of 12 hours between each application. […] Following treatment, the level of udder inflammation, as measured by the Somatic Cell Count in the milk samples post treatment, was lower in the udders treated with the cefazolin-fosfomycin combination (46% of milk samples with a SCC lower than 300,000 cells/mL) than in udders treated with cefazolin alone (30% of milk samples with a SCC lower than 300,000 cells/mL) or with fosfomycin alone (24% of milk samples with a SCC lower than 300,000 cells/mL).

[3] = dose 100 μg IMAM, listed as enrofloxacin

Row | SMILES | Cleared glands % (less than 200 CFU/g) ([1]; dose 100 μg IMAM) | log10 CFU reduction (median, vs untreated control) ([1]; dose 100 μg IMAM) [log10] | MPC against S. aureus (S. aureus) [µg/mL] | MPC against E. coli (E. coli) [µg/mL] | Cure rate of mastitis infection [2] [%] | Cure rate of mastitis infection (cured quarters/treated quarters) [2] | Cure rate of S. aureus infection (Staphylococcus aureus) [%] | Cure rate of S. aureus infection (cured quarters/treated quarters) (Staphylococcus aureus) | Cured quarters with SCC returned to normal (lower than 300,000 cells per mL) (Staphylococcus aureus) [%] | Cured quarters with SCC returned to normal (lower than 300,000 cells per mL), quarters/treated quarters (Staphylococcus aureus) | Milk samples post treatment with a SCC lower than 300,000 cells/mL (Staphylococcus aureus) [%] | further results
1 | CCN1CCN(c2cc3c(cc2F)c(=O)c(C(=O)O)cn3C2CC2)CC1 [Enrofloxacin, enrofloxacin] | 0% | 1.41 | 3 | – | – | – | – | – | – | – | – | Median CFU log10 ([1]; dose 100 μg IMAM 4 h after inoculation): 6.8 CFU log10; Cleared glands % (less than 200 CFU/g) [1, 3]: does not eliminate the infection; log10 CFU reduction (median, vs untreated control) [1, 3]: 1.4 log10
2 | C[C@@H]1O[C@@H]1P(=O)(O)O [Fosfomycin, [(2R,3S)-3-methyloxiran-2-yl]phosphonic acid] | does not eliminate the infection | 2.0 | 1500 | 200 | 35 | 13/37 | 57 | 27/47 | 19 | 9/47 | 24 | Cleared glands % (less than 200 CFU/g) ([1]; dose 500 μg IMAM): 0%; log10 CFU reduction (median, vs untreated control) ([1]; dose 500 μg IMAM): 3.3 log10; Median CFU log10 ([1]; dose 500 μg IMAM 4 h after inoculation): 5.0 CFU log10; Cleared glands % (less than 200 CFU/g) ([1]; dose 500 μg IMAM, listed as fosfomycin): does not eliminate the infection; Cleared glands % (less than 200 CFU/g) ([1]; dose 1000 μg IMAM): 0%; log10 CFU reduction (median, vs untreated control) ([1]; dose 1000 μg IMAM): 5.1 log10; Median CFU log10 ([1]; dose 1000 μg IMAM 4 h after inoculation): 3.2 CFU log10; Cleared glands % (less than 200 CFU/g) ([1]; dose 1000 μg IMAM, listed as fosfomycin): does not eliminate the infection
3 | CC1(C)S[C@@H]2[C@H](NC(=O)[C@H](N)c3ccc(O)cc3)C(=O)N2[C@H]1C(=O)O [amoxicillin] | does not eliminate the infection | 1.6 | – | – | – | – | – | – | – | – | – | –
4 | Cc1nnc(SCC2=C(C(=O)O)N3C(=O)[C@@H](NC(=O)Cn4cnnn4)[C@H]3SC2)s1 [cefazolin] | does not eliminate the infection | 5.1 | 1.25 | 64 | 31 | 11/35 | 46 | 20/43 | 23 | 10/43 | 30 | Cleared glands % (less than 200 CFU/g) ([1]; dose 50 microgram IMAM): does not eliminate the infection; log10 CFU reduction (median, vs untreated control) ([1]; dose 50 microgram IMAM): 4.5 log10
5 | CC[C@@H]1CCN[C@H](C(=O)N[C@@H]([C@H]2O[C@H](SC)[C@H](O)[C@@H](O)[C@H]2O)[C@H](C)Cl)C1 [pirlimycin] | – | – | 2 | – | – | – | – | – | – | – | – | Cleared glands % (less than 200 CFU/g) ([1]; dose 10 microgram IMAM): does not eliminate the infection; log10 CFU reduction (median, vs untreated control) ([1]; dose 10 microgram IMAM): 3.3 log10
